The values that follow come from patent US8278100B2, “Lasonolide compounds as reagents for inducing premature chromosome condensation and methods for treating disorders” (The United States of America, as Represented by the …, priority 2008, dated 2012).

In test [1] the test system is Burkitt's Lymphoma CA46 cells. The test is described as follows: PCC induction and PI staining. Format: cell-based, human. The note with it: 1 μM OA, 1 h. As to the method:
(§1) Burkitt's Lymphoma CA46 cells (500,000) (FIG. 1B) or breast cancer MDA-MB-231 cells (500,000) (FIG. 1A) were treated by 100 nM Lasonolide A (stock solution 100 μM in DMSO) for 1 h. Lymphocytes were treated with 200 nM Lasonolide A for 1 h. Cells were harvested with centrifuging on 2,000 rpm for 5 min at 4° C. Pellets were washed once by PBS and re-suspended in 1 mL PBS. 200 μL cells mixture were added to the chamber for cytospining. Cells were cytospun on 800 rpm for 10 min; slides were fixed in fresh-made 4% paraformaldehyde fixation for 20 min at room temperature, then moved to 70% ethanol for 20 min. Slides were stained with Propidium Iodide (“PI”) (20 μg/mL) and RNase A (100 μg/mL) for 15 min. Slides were washed with PBS for three times and mounted with Vectashield anti-fade mounting media (Vector Laboratories, Inc., Burlingame, Calif.). Images were taken using a Nikon Eclipse TE-300 confocal microscope.

A further test has as its system human lymphocytes. Description: PCC induction and PI staining. It is filed as cell-based. The note with it: 1 μM OA, without additional reagents.
A further test has as its system tumor cells. The test is described as follows: Premature chromosome condensation (PCC) induction, cells not specified. Format: cell-based. The note with it: co-treatment with Lasonolide A. The method, then: as §1

`C=C1[C@@H](O)[C@@H]2O[C@]3(CC[C@H](/C=C/[C@@H](C)[C@@H]4CC(C)=C[C@@]5(O[C@H](C[C@@](C)(O)C(=O)O)CC[C@H]5O)O4)O3)CC[C@H]2O[C@@H]1[C@@H](O)C[C@H](C)[C@H]1O[C@@]2(CCCCO2)CC[C@H]1C` [OA, Okadaic Acid, reference compound]: the “cells with premature chromosome condensation (PCC)” value in test [1] was determined as 31%. The “lymphocytes going to PCC” value in the test on human lymphocytes came out at 1.7%. `CC[C@H](CO)Nc1nc(NCc2ccccc2)c2ncn(C(C)C)c2n1` [Roscovitine]: the “effect of the added inhibitor on PCC induction by Lasonolide A” value (from here on “effect of the added inhibitor”) in the test on tumor cells was “could not influence the PCC induction”. Take `CN1CC[C@H](c2c(O)cc(O)c3c(=O)cc(-c4ccccc4Cl)oc23)[C@H](O)C1` [Flavorpiridol]: the “effect of the added inhibitor” value in the test on tumor cells is given as “could not influence the PCC induction”.

For the molecule `C[C@@]1(CO)[C@H](O)CC[C@@]2(C)[C@H]1CC[C@H]1C[C@@H]3C[C@@]12CC[C@]3(O)CO` [aphidicolin], the “effect of the added inhibitor” value in the test with tumor cells is recorded as “had no effect on PCC induction”.

For `C[C@@H](CN1CC(=O)NC(=O)C1)N1CC(=O)NC(=O)C1` [ICRF187], the “effect of the added inhibitor” value in the test on tumor cells was “changed the pattern of PCC”.
